Results: ChEMBL document CHEMBL5291721, “A preclinical secondary pharmacology resource illuminates target-adverse drug reaction associations of marketed drugs” (Nat Commun, 2023)

Assays:
[1] = target: T1, Alpha-1A adrenergic receptor (Homo sapiens, UniProt P35348); format: functional, cell-based
T1 sequence (P35348 whole entry): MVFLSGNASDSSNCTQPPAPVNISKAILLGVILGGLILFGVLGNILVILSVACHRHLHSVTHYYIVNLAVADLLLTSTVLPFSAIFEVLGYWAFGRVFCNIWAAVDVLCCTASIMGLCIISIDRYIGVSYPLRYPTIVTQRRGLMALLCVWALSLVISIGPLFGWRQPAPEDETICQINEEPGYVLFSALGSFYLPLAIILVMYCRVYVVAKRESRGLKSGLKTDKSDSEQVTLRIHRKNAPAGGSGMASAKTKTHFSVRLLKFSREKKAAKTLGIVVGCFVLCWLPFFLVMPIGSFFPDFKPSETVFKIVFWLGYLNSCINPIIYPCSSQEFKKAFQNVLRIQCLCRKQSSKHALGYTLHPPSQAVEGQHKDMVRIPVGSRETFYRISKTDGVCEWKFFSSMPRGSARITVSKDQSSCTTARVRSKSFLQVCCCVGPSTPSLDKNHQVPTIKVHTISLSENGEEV

[2] = target: Sodium-dependent dopamine transporter (Homo sapiens, UniProt Q01959)
[3] = target: Sodium-dependent noradrenaline transporter (Homo sapiens, UniProt P23975)
[4] = target: 3',5'-cyclic-AMP phosphodiesterase 4A (Homo sapiens, UniProt P27815); format: functional
Acetylcholinesterase = Acetylcholinesterase (Homo sapiens, UniProt P22303); format: functional
Progesterone receptor = target: T2, Progesterone receptor (Homo sapiens, UniProt P06401)
T2 sequence (P06401 whole entry): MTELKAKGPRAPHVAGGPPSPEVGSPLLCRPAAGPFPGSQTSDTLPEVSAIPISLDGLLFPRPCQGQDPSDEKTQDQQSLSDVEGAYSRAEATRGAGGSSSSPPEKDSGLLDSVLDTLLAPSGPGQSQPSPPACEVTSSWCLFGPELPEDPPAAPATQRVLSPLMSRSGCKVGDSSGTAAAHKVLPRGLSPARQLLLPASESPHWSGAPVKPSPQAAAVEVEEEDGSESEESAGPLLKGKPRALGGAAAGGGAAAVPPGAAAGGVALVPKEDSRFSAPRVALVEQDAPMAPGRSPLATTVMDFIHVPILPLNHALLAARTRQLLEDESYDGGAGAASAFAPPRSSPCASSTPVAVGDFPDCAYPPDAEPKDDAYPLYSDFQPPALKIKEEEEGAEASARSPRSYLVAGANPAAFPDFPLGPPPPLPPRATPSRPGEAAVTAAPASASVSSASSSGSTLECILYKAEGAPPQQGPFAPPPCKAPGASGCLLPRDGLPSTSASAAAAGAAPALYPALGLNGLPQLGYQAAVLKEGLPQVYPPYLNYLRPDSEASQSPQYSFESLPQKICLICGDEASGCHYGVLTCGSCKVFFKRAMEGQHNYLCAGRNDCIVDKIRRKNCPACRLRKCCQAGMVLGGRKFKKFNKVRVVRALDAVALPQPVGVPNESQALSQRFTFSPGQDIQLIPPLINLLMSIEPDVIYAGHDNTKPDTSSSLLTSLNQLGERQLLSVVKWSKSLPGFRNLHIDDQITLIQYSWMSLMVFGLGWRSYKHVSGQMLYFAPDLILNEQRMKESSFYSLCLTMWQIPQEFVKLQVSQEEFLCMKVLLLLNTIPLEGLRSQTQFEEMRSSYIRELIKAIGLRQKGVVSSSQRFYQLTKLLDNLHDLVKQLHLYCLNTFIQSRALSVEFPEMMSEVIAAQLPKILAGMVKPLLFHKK

[5] = target: T3, Amine oxidase [flavin-containing] A (Homo sapiens, UniProt P21397); format: functional
T3 sequence (P21397 whole entry): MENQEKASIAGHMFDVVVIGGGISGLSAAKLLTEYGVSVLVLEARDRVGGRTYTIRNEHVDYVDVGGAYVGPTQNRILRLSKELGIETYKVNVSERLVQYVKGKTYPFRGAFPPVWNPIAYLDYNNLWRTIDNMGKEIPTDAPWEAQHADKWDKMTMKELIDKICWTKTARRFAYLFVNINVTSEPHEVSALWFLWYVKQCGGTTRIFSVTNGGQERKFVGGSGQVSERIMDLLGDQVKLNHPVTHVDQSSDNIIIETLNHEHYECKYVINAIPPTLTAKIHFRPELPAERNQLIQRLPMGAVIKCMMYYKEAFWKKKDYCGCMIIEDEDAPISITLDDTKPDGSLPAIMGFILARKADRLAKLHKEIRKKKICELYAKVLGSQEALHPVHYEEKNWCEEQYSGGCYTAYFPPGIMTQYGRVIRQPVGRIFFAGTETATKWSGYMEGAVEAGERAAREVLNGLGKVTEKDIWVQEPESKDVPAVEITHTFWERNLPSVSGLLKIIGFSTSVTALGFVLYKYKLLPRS

[6] = target: T4, 5-hydroxytryptamine receptor 1A (Homo sapiens, UniProt P08908)
T4 sequence (P08908 whole entry): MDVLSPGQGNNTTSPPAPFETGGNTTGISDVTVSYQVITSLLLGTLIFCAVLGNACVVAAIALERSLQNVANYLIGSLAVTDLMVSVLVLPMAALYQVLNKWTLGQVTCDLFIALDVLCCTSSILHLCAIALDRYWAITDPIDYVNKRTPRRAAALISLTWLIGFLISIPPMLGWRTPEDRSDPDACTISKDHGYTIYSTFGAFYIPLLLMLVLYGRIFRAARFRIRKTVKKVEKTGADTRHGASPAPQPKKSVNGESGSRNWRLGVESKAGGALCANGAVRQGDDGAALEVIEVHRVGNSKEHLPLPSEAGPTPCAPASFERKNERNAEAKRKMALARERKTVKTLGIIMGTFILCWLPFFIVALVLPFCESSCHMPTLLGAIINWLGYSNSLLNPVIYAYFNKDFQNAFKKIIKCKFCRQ
Further: assay procedure not described here.

Chain of Sodium-dependent noradrenaline transporter (P23975 whole entry): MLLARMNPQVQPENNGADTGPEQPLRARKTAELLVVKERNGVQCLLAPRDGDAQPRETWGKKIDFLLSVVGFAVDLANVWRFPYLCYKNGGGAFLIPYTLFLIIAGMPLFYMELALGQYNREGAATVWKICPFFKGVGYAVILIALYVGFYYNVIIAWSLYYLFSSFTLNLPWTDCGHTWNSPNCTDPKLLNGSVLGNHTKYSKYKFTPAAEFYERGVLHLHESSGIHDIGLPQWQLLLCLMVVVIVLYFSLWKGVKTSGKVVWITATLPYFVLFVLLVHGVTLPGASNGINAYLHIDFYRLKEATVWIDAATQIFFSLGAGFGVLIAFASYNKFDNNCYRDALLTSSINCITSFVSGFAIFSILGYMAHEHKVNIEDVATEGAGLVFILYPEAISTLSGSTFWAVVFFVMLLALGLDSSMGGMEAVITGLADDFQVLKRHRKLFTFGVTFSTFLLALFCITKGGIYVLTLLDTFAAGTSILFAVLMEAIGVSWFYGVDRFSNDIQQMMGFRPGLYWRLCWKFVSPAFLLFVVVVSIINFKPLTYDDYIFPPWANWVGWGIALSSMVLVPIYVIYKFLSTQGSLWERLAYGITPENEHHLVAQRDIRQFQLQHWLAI
Chain of Sodium-dependent dopamine transporter (Q01959 whole entry): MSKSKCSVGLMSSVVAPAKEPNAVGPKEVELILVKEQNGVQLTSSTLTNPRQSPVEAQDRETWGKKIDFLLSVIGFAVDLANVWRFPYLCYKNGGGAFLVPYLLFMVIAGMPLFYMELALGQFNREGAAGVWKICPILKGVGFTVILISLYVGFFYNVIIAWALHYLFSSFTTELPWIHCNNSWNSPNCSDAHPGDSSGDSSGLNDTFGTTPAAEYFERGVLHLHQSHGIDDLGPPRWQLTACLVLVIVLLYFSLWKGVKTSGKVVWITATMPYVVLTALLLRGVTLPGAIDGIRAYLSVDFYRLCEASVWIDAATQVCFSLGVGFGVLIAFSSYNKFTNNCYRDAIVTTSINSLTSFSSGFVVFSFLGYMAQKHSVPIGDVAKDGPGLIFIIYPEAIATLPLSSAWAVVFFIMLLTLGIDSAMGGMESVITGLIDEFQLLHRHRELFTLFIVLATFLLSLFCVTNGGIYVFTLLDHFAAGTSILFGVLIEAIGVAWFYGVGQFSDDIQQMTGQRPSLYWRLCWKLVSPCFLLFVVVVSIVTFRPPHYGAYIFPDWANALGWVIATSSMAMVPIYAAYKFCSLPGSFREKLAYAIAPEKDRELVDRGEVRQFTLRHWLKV
Chain of Acetylcholinesterase (P22303 whole entry): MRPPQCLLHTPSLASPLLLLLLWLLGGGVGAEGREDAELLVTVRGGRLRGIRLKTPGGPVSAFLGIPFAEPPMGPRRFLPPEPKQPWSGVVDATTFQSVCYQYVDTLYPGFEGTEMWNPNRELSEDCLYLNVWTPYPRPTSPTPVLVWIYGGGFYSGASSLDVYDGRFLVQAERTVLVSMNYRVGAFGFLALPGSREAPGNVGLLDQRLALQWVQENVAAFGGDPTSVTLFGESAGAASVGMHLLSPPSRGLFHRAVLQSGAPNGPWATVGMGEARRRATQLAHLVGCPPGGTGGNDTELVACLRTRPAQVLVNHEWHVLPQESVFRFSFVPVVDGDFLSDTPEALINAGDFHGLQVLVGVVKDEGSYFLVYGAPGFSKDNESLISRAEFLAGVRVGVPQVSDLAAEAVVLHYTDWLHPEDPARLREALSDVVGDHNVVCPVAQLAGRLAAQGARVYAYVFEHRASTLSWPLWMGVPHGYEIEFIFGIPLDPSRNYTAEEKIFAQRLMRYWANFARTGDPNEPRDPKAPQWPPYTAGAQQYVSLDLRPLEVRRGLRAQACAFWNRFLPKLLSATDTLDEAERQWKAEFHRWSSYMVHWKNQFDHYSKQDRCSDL
Chain of 3',5'-cyclic-AMP phosphodiesterase 4A (P27815 whole entry): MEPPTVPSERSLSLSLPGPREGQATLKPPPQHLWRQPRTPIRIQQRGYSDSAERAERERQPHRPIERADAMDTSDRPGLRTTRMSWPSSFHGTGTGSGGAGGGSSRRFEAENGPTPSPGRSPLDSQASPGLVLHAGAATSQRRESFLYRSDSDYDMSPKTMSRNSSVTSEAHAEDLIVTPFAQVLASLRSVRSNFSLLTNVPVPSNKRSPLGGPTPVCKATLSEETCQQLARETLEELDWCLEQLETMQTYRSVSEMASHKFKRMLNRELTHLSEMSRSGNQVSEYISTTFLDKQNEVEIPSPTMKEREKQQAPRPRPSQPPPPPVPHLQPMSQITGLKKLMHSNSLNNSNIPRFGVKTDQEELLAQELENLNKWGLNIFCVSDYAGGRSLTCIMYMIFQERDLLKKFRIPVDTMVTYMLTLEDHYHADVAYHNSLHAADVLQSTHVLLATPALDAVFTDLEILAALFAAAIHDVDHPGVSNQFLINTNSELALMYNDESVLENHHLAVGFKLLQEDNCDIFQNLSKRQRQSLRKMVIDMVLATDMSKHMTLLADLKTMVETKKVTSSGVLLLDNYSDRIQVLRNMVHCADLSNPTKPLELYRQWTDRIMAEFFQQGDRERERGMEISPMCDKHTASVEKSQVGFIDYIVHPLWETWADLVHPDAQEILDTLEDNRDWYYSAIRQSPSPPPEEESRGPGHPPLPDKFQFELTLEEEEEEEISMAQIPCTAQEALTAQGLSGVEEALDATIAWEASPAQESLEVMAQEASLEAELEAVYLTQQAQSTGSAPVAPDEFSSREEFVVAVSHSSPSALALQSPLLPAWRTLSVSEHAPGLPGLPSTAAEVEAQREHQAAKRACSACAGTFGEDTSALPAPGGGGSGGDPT

SMILES | AC50 [1] [µM] | AC50 [2] [µM] | AC50 [3] [µM] | AC50 [4] [µM] | AC50 (Acetylcholinesterase) [µM] | AC50 (Progesterone receptor) [µM] | AC50 [5] [µM] | AC50 [6] [µM]
CCC1(c2cccc(O)c2)CCCCN(C)C1 (stereo not given) [MEPTAZINOL] | > 30 | > 30 | > 30 | > 30 | 5.51 | > 30 | > 30 | > 30
CC(=O)OC(C)C[N+](C)(C)C (stereo not given) [METHACHOLINE] | > 30 | > 30 | > 30 | > 30 | > 30 | > 30 | > 30 | > 30
C1N2CN3CN1CN(C2)C3 [METHENAMINE] | > 30 | > 30 | > 30 | > 30 | > 30 | > 30 | > 30 | > 30
Cn1cc[nH]c1=S [METHIMAZOLE] | > 30 | > 30 | > 30 | > 30 | > 30 | > 30 | > 30 | > 30
CO[C@@]12[C@H](COC(N)=O)C3=C(C(=O)C(C)=C(N)C3=O)N1C[C@@H]1N[C@@H]12 [MITOMYCIN] | > 30 | > 30 | > 30 | > 30 | > 30 | > 30 | > 30 | > 30
O=[N+]([O-])c1cncn1CCN1CCOCC1 [NIMORAZOLE] | > 30 | > 30 | > 30 | > 30 | > 30 | > 30 | > 30 | > 30
NC(=O)c1cccc2cn(-c3ccc([C@@H]4CCCNC4)cc3)nc12 [NIRAPARIB] | > 30 | 0.113 | 1 | > 30 | > 30 | > 30 | > 30 | > 30
COc1ccc2c(c1)OC(C)(C)C(c1ccccc1)C2c1ccc(OCCN2CCCC2)cc1 (stereo not given) [ORMELOXIFENE] | 13.4 | 3 | 4.9 | > 30 | > 30 | 3.57 | > 30 | 9.91
Oc1cccc2cccnc12 [OXYQUINOLINE] | > 30 | > 30 | > 30 | > 30 | > 30 | > 30 | > 30 | > 30
Nc1nc2c(ncn2CCC(CO)CO)c(=O)[nH]1 [PENCICLOVIR] | > 30 | > 30 | > 30 | > 30 | > 30 | > 30 | > 30 | > 30
CC[C@@H]1/C=C(\C)C[C@H](C)C[C@H](OC)[C@H]2O[C@@](O)(C(=O)C(=O)N3CCCC[C@H]3C(=O)O[C@H](/C(C)=C/[C@@H]3CC[C@H](Cl)[C@H](OC)C3)[C@H](C)[C@@H](O)CC1=O)[C@H](C)C[C@@H]2OC [PIMECROLIMUS] | > 30 | > 30 | > 30 | > 30 | > 30 | > 30 | > 30 | > 30
CC(C(=O)O)c1ccc2c(c1)Cc1cccnc1O2 (stereo not given) [PRANOPROFEN] | > 30 | > 30 | > 30 | > 30 | > 30 | > 30 | > 30 | > 30
O=C(O)CCn1c2c(c3ccccc31)C[C@H](NS(=O)(=O)c1ccc(F)cc1)CC2 [RAMATROBAN] | > 30 | > 30 | > 30 | > 30 | > 30 | > 30 | > 30 | > 30
CCO[C@@H](Cc1ccc(OCCn2c(C)ccc2-c2ccc(SC)cc2)cc1)C(=O)O [SAROGLITAZAR] | 15 | > 30 | 24.5 | 11.1 | > 30 | 8.57 | > 30 | > 30
CN1CCC2=C(C1)c1ccccc1Cc1ccccc12 [SETIPTILINE] | > 30 | 24.1 | 3.52 | > 30 | > 30 | > 30 | > 30 | 0.154
COc1ccc(CCC(C)NCC(O)c2ccc(O)c([S+](C)[O-])c2)cc1 (stereo not given) [SULFINALOL] | > 30 | > 30 | 10.6 | > 30 | > 30 | > 30 | > 30 | 0.326
O=C1CCC(N2C(=O)c3ccccc3C2=O)C(=O)N1 (stereo not given) [THALIDOMIDE] | > 30 | > 30 | > 30 | > 30 | > 30 | > 30 | > 30 | > 30
CCC1C(C)=NN=C(c2ccc(OC)c(OC)c2)c2cc(OC)c(OC)cc21 (stereo not given) [TOFISOPAM] | > 30 | > 30 | > 30 | 0.319 | > 30 | > 30 | > 30 | > 30
COc1cc(NCc2ccc3nc(N)nc(N)c3c2C)cc(OC)c1OC [TRIMETREXATE] | > 30 | 9.54 | 12.3 | 7.19 | 1.62 | > 30 | 3.8 | 8.06
C[C@@H]1O[C@@H](OC[C@H]2O[C@@H](Oc3c(-c4ccc(OCCO)c(OCCO)c4)oc4cc(OCCO)cc(O)c4c3=O)[C@H](O)[C@@H](O)[C@@H]2O)[C@H](O)[C@H](O)[C@H]1O [TROXERUTIN] | > 30 | > 30 | > 30 | > 30 | > 30 | > 30 | > 30 | > 30
